Experimental data from US20100105729A1, “ARYL-SUBSTITUTED HETEROCYCLIC PDE4 INHIBITORS AS ANTI-INFLAMMATORY AGENTS” (KALYPSYS, INC., priority 2006, published 2010).

Each molecule was assayed against T1, PDE4B (Homo sapiens, UniProt Q07343) (assay: PDE4 IMAP Assay). Details: catalytic domain of PDE4B, fluorescence polarization.
T1 construct: hexa-histidine (His6) (N); made in house
Assay type: biochemical
Source text: Compounds may be screened for functional potency in in vitro biochemical assays for their ability to inhibit the activity of phosphodiesterase (PDE) enzymes. A commercial PDE assay, Molecular Device's PDE IMAP assay, was modified and utilized to measure the inhibitory activity of compounds on PDE isoforms. The IMAP technology is based on the high affinity binding of phosphate by immobilized metal (MIII) coordination complexes on nanoparticles. This IMAP “binding reagent” complexes with phosphate groups on the nucleotide monophosphates generated in the reaction. Such binding causes a change in the rate of the molecular motion of the nucleotide, and results in an increase in the fluorescence polarization value observed for the fluorescent label attached to the substrate. PDE inhibitors prevent the generation of nucleotide monophosphates and the subsequent increase in polarization value observed for the fluorescent label attached to the substrate. The catalytic domain of PDE4B was fused to an amino-terminus hex-histadine affinity tag and purified. PDE4B enzyme was incubated with compounds for 10 minutes. Fluorescently labeled cyclic AMP substrates were then added to the PDE enzyme mix and incubated for 2 hours at room temperature. IMAP binding reagent was then added to the enzyme mix, incubated for 10-30 minutes and fluorescent polarization of the fluorescently labeled substrate was read either with the Perkin Elmer Viewlux or Molecular Devices Acquest or Analyst. Roflumilast and Rolipram are the positive controls used in the assay.

T1 sequence (Q07343 330-659 limits assumed, species assumed): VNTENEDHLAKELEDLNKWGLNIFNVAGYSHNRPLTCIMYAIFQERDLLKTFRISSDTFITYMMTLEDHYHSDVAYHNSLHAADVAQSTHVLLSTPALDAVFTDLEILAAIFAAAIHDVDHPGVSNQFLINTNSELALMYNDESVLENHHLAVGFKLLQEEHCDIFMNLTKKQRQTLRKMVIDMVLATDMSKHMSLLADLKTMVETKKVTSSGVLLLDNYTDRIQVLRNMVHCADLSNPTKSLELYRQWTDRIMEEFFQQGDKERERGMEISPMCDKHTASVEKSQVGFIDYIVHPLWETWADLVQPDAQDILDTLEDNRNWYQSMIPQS

Compound	inhibition at 10 µM [%]
COc1ccc(C2=NN(C(=O)CCC(=O)O)C(c3ccc(C)cc3)C2)cc1OC (stereo not drawn) [Example 71, 4-(3-(3,4-dimethoxyphenyl)-5-p-tolyl-4,5-dihydro-1H-pyrazol-1-yl)-4-oxobutanoic acid]	< 50
COc1ccc(C2=NN(C(=O)CCC(=O)O)C(c3ccc(F)cc3)C2)cc1OC (stereo not drawn) [Example 72, 4-(3-(3,4-dimethoxyphenyl)-5-(4-fluorophenyl)-4,5-dihydro-1H-pyrazol-1-yl)-4-oxobutanoic acid]	< 50
COc1ccc(C2=NN(C(C)=O)C(c3cn(-c4ccccc4)nc3-c3ccccc3)C2)cc1OC (stereo not drawn) [Example 73, 1-(3-(3,4-dimethoxyphenyl)-5-(1,3-diphenyl-1H-pyrazol-4-yl)-4,5-dihydro-1H-pyrazol-1-yl)ethanone]	< 50
COc1ccc(C2=NN(C(C)=O)C(c3cc4cc(C)ccc4nc3Cl)C2)cc1OC (stereo not drawn) [Example 74, 1-(5-(2-chloro-6-methylquinolin-3-yl)-3-(3,4-dimethoxyphenyl)-4,5-dihydro-1H-pyrazol-1-yl)ethanone]	< 50
COc1ccc(C2=NN(C(C)=O)C(c3cc4ccc(C)cc4nc3Cl)C2)cc1OC (stereo not drawn) [Example 75, 1-(5-(2-chloro-7-methylquinolin-3-yl)-3-(3,4-dimethoxyphenyl)-4,5-dihydro-1H-pyrazol-1-yl)ethanone]	< 50
COc1ccc(C2=NN(C(C)=O)C(c3cc4cccc(C)c4nc3Cl)C2)cc1OC (stereo not drawn) [Example 76, 1-(5-(2-chloro-8-methylquinolin-3-yl)-3-(3,4-dimethoxyphenyl)-4,5-dihydro-1H-pyrazol-1-yl)ethanone]	< 50
COc1ccc(C2=NN(C(=O)c3cc(OC)c(OC)c(OC)c3)C(c3ccc(OC)c(OC)c3)C2)cc1OC (stereo not drawn) [Example 78, (3,5-bis(3,4-dimethoxyphenyl)-4,5-dihydro-1H-pyrazol-1-yl)(3,4,5-trimethoxyphenyl)methanone]	< 50
COc1ccc(C2=NN(C(=O)c3cc(OC)c(OC)c(OC)c3)C(c3ccccc3F)C2)cc1OC (stereo not drawn) [Example 79, (3-(3,4-dimethoxyphenyl)-5-(2-fluorophenyl)-4,5-dihydro-1H-pyrazol-1-yl)(3,4,5-trimethoxyphenyl)methanone]	≥ 50
COc1ccc(C2=NN(C(=O)c3cc(OC)c(OC)c(OC)c3)C(c3ccccc3OC)C2)cc1OC (stereo not drawn) [Example 80, (3-(3,4-dimethoxyphenyl)-5-(2-methoxyphenyl)-4,5-dihydro-1H-pyrazol-1-yl)(3,4,5-trimethoxyphenyl)methanone]	< 50
COc1ccc(C2=NN(C(=O)c3ccc(Br)o3)C(c3ccc(N(C)C)cc3)C2)cc1OC (stereo not drawn) [Example 81, (5-bromofuran-2-yl)(3-(3,4-dimethoxyphenyl)-5-(4-(dimethylamino)phenyl)-4,5-dihydro-1H-pyrazol-1-yl)methanone]	< 50
COc1ccc(C2=NN(C(=O)c3ccc(Br)o3)C(c3cccc(OC)c3OC)C2)cc1OC (stereo not drawn) [Example 84, (5-bromofuran-2-yl)(5-(2,3-dimethoxyphenyl)-3-(3,4-dimethoxyphenyl)-4,5-dihydro-1H-pyrazol-1-yl)methanone]	< 50
COc1ccc(C2=NN(S(=O)(=O)c3ccc(C)cc3)C(c3ccc(N(C)C)cc3)C2)cc1OC (stereo not drawn) [Example 85, 4-(3-(3,4-dimethoxyphenyl)-1-tosyl-4,5-dihydro-1H-pyrazol-5-yl)-N,N-dimethylaniline]	< 50
COc1ccc(C2=NN(S(=O)(=O)c3ccccc3)C(c3ccc(OC)c(OC)c3)C2)cc1OC (stereo not drawn) [Example 86, 3,5-bis(3,4-dimethoxyphenyl)-1-(phenylsulfonyl)-4,5-dihydro-1H-pyrazole]	≥ 50
COc1ccc(C2=NN(S(=O)(=O)c3ccc(C)cc3)C(c3ccc(OC)c(OC)c3)C2)cc1OC (stereo not drawn) [Example 87, 3,5-bis(3,4-dimethoxyphenyl)-1-tosyl-4,5-dihydro-1H-pyrazole]	< 50
COc1ccc(OC)c(C2CC(c3ccc(OC)c(OC)c3)=NN2S(=O)(=O)c2ccccc2)c1 (stereo not drawn) [Example 88, 5-(2,5-dimethoxyphenyl)-3-(3,4-dimethoxyphenyl)-1-(phenylsulfonyl)-4,5-dihydro-1H-pyrazole]	< 50
COc1ccc(OC)c(C2CC(c3ccc(OC)c(OC)c3)=NN2S(=O)(=O)c2ccc(C)cc2)c1 (stereo not drawn) [Example 89, 5-(2,5-dimethoxyphenyl)-3-(3,4-dimethoxyphenyl)-1-tosyl-4,5-dihydro-1H-pyrazole]	< 50
COc1ccc(C2=NN(S(=O)(=O)c3ccccc3)C(c3cccc(OC)c3OC)C2)cc1OC (stereo not drawn) [Example 90, 5-(2,3-dimethoxyphenyl)-3-(3,4-dimethoxyphenyl)-1-(phenylsulfonyl)-4,5-dihydro-1H-pyrazole]	< 50

Compound	inhibition at 10 µM [%]
COc1ccc(C2=NN(S(=O)(=O)c3ccc(C)cc3)C(c3cccc(OC)c3OC)C2)cc1OC (stereo not drawn) [Example 91, 5-(2,3-dimethoxyphenyl)-3-(3,4-dimethoxyphenyl)-1-tosyl-4,5-dihydro-1H-pyrazole]	< 50
COc1ccc(C2CC(c3ccc(OC)c(OC)c3)=NN2S(=O)(=O)c2ccc(C)cc2)cc1 (stereo not drawn) [Example 92, 3-(3,4-dimethoxyphenyl)-5-(4-methoxyphenyl)-1-tosyl-4,5-dihydro-1H-pyrazole]	< 50
COc1ccc(C2=NN(S(=O)(=O)c3ccc(C)cc3)C(c3ccccc3OC)C2)cc1OC (stereo not drawn) [Example 93, 3-(3,4-dimethoxyphenyl)-5-(2-methoxyphenyl)-1-tosyl-4,5-dihydro-1H-pyrazole]	< 50
COc1ccc(C2=NN(C(=O)CCCC(=O)O)C(c3cccc(OC)c3OC)C2)cc1OC (stereo not drawn) [Example 94, 5-(5-(2,3-dimethoxyphenyl)-3-(3,4-dimethoxyphenyl)-4,5-dihydro-1H-pyrazol-1-yl)-5-oxopentanoic acid]	< 50
COc1ccc(C2=NN(C(=O)CCCC(=O)O)C(c3ccc(Cl)cc3)C2)cc1OC (stereo not drawn) [Example 95, 5-(5-(4-chlorophenyl)-3-(3,4-dimethoxyphenyl)-4,5-dihydro-1H-pyrazol-1-yl)-5-oxopentanoic acid]	< 50
COc1ccc(C2=NN(C(=O)CCCC(=O)O)C(c3ccc(C)cc3)C2)cc1OC (stereo not drawn) [Example 96, 5-(3-(3,4-dimethoxyphenyl)-5-p-tolyl-4,5-dihydro-1H-pyrazol-1-yl)-5-oxopentanoic acid]	< 50
COc1ccc(C2CC(c3ccc(OC)c(OC)c3)=NN2C(=O)CCC(=O)O)cc1 (stereo not drawn) [Example 97, 4-(3-(3,4-dimethoxyphenyl)-5-(4-methoxyphenyl)-4,5-dihydro-1H-pyrazol-1-yl)-4-oxobutanoic acid]	< 50
COc1ccc(C2=NN(C(=O)CCC(=O)O)C(c3ccccc3OC)C2)cc1OC (stereo not drawn) [Example 98, 4-(3-(3,4-dimethoxyphenyl)-5-(2-methoxyphenyl)-4,5-dihydro-1H-pyrazol-1-yl)-4-oxobutanoic acid]	< 50
COc1ccc(C2=NN(C(=O)CCC(=O)O)C(c3ccccc3)C2)cc1OC (stereo not drawn) [Example 99, 4-(3-(3,4-dimethoxyphenyl)-5-phenyl-4,5-dihydro-1H-pyrazol-1-yl)-4-oxobutanoic acid]	< 50
COc1ccc(C2=NN(C(C)=O)C(c3ccc(OC)c(OC)c3)C2)cc1OC (stereo not drawn) [Example 100, 1-(3,5-bis(3,4-dimethoxyphenyl)-4,5-dihydro-1H-pyrazol-1-yl)ethanone]	< 50
COc1ccc(C2=NN(C(C)=O)C(c3cccc(OC)c3OC)C2)cc1OC (stereo not drawn) [Example 101, 1-(5-(2,3-dimethoxyphenyl)-3-(3,4-dimethoxyphenyl)-4,5-dihydro-1H-pyrazol-1-yl)ethanone]	< 50
COc1ccc(C2=NN(C(C)=O)C(c3ccc(F)cc3)C2)cc1OC (stereo not drawn) [Example 102, 1-(3-(3,4-dimethoxyphenyl)-5-(4-fluorophenyl)-4,5-dihydro-1H-pyrazol-1-yl)ethanone]	≥ 50
COc1ccc(C2CC(c3ccc(OC)c(OC)c3)=NN2C(C)=O)cc1 (stereo not drawn) [Example 103, 1-(3-(3,4-dimethoxyphenyl)-5-(4-methoxyphenyl)-4,5-dihydro-1H-pyrazol-1-yl)ethanone]	< 50
COc1ccc(C2=NN(C(C)=O)C(c3ccccc3F)C2)cc1OC (stereo not drawn) [Example 104, 1-(3-(3,4-dimethoxyphenyl)-5-(2-fluorophenyl)-4,5-dihydro-1H-pyrazol-1-yl)ethanone]	< 50
COc1ccc(C2=NN(C(C)=O)C(c3ccccc3OC)C2)cc1OC (stereo not drawn) [Example 105, 1-(3-(3,4-dimethoxyphenyl)-5-(2-methoxyphenyl)-4,5-dihydro-1H-pyrazol-1-yl)ethanone]	< 50
COc1ccc(C2=NN(C(C)=O)C(c3ccccc3)C2)cc1OC (stereo not drawn) [Example 106, 1-(3-(3,4-dimethoxyphenyl)-5-phenyl-4,5-dihydro-1H-pyrazol-1-yl)ethanone]	< 50
